Reference: US20040054130A1, “Insulin potentiating peptides” (priority 2000, published 2004)
Square brackets hold non-standard residues; d marks the D form. Ends that are not written are not given here. Cha = N[C@@H](CC1CCCCC1)C(=O)O; Orn = NCCC[C@H](N)C(=O)O; βAla = NCCC(=O)O

Tests used:
[1] = test system: Zucker (fa/fa) rat hemidiaphragm muscle; experiment: In vitro glycogen synthesis (glucose incorporation into glycogen) in hemidiaphragm muscle with exogenous insulin; assay type: cell-based; design: key to Activity: insulin-potentiating: improved activity compared to insulin alone; inactive: equal activity compared to insulin alone; insulin antagonist: reduced activity compared to insulin alone; *-**: increasing insulin-potentiating activity; settings: for insulin-potentiating activity on in vitro glycogen synthesis (in words): with 1 mU/ml exogenous insulin
Protocol: In vitro insulin-potentiating effects of the synthetic peptide analogues were assessed by measuring the rates of exogenous glucose incorporation into glycogen in rat hemidiaphragms (Lim et al, 1992). Hemidiaphragms from overnight-fasted Zucker fatty(fa/fa) female rats were dissected, and divided into segments of approximate 35-50 mg each. Tissues from the same rat were used for all groups. The tissue was incubated in 2 ml of Krebs-Ringer bicarbonate (KRB) buffer (pH 7.4) containing [^14C]glucose (5.5 mM, final specific activity 0.05 mCi/mmol) under an atmosphere of 95% 02-5% CO2 at 37° C. for 1.5 hr. After incubation, tissues were removed, washed with cold buffer and blotted. Tissues were digested, the muscle glycogen was precipitated and the ^14C-radioactivity was counted in a Wallac 1410 liquid scintillation counter. The biological activity of peptide analogues was measured as the rate of mmol glucose incorporation into muscle glycogen/g tissue/hr.
The sensitivity of hemidiaphragm muscle tissue to insulin (0.1-100 mU/ml) on glycogen synthesis was first analyzed. The dose response curves for peptide analogues on the insulin-potentiating effect to glycogen synthesis were then measured using cumulative increasing concentrations (10^−3 10 μmol/ml) of peptides in the presence of insulin (1 mU/ml). The biological activity of each peptide analogue was measured as the rate of glucose incorporation into muscle glycogen (μmol/g tissue/hr), and represented by the mean±SEM from eight determinations.
To determine the insulin-potentiating effect of the peptide analogues, the rates of incorporation of glucose into muscle glycogen were measured. The rates of glycogen synthesis (μmol/g tissue/hr) were 0.52±0.05, 0.60±0.04, 1.27±0.06 and 1.52±0.07 inresponse to 0.33, 1, 3.33 and 10 mU/ml insulin respectively, as shown in FIG. 1.
The insulin-potentiating effect of the peptide analogues was then observed by studying their dose response. curves for glucose incorporation into glycogen in the presence of 1 mU/ml exogenous insulin. The effects of peptides 1, 3, 4, 6, 7, 8 and 10 were evident at doses higher than 0.01 μmol/ml, and continued to increase with increasing peptide concentration to 1 μmol/ml, as shown in FIGS. 2A and 2B.
The activity of each analogue was assessed by in vitro measurement of glycogen synthesis in muscle, as described above.

normal male Wistar rats = experiment: Intravenous insulin tolerance test (IVITT); assay type: in vivo, rat; settings: 5 μmol/kg i.v.; for insulin-potentiating effect on decreasing blood glucose in IVITT (in words): from 30 min after commencement; for Reduction in Blood Glucose: 0.1 U insulin/kg
Protocol: IVITTs (0.1 U insulin/kg body weight) were performed on overnight-fasted Wistar male rats as previously described (Lim et al, 1992). Blood samples were taken for glucose estimation at 15, 30, 45, 60 min after the commencement of the tests. Six animals in each group were used.
IVITTs were performed on normal male Wistar rats after a single intravenous (i.v.) injection of the hGH peptide analogues at a dose of 5 μmol/kg body weight. The insulin-potentiating effects of peptides 6, 7, 8 and 10 on decreasing blood glucose levels of treated animals became significant since 30 min after the commencement of the test. Bioactivity was retained when the Arg^8 or Phe^10 residue of Asu^11-hGH(6-13) peptide was substituted with Lys or Tyr respectively (1.92±0.17 or 1.62±0.18 vs. 1.65±0.12 mmol/L at 45 min), as shown in Table 3. However, no insulin-potentiating effect was observed when either Arg^8 or Phe^10 was substituted by Gly (0.92±0.08 or 1.08±0.08 mmol/L respectively vs. 1.00±0.10 mmol/L of control at 45 min). Asu^11-hGH(8-13) also elicited this insulin-potentiating effect, but with lower potency.

[2] = test system: Zucker fatty (fa/fa) rats; experiment: Basal blood glucose determination after i.p. peptide; assay type: in vivo, rat; settings: 10 μmol/kg body weight i.p., over 150 min, vs saline
Protocol: Overnight-fasted Zucker fatty(fa/fa) female rats were anaesthetized with sodium pentobarbitone (60 mg/kg body weight). After 45 min, basal blood glucose samples were taken from the tail vein, followed immediately by intraperitoneal (i.p.) injection of saline (control) or the peptide analogue (test, 10 μmol/kg body weight) in 0.4 ml of saline. Blood samples were taken at 15, 30, 60, 90, 120, 150 minutes after injection, and the blood glucose level in each sample was measured immediately by the glucose oxidase method, using a YSI Model-2300 STAT glucose analyzer (Yellow Spring, Ohio). Six animals for each group were used.
The reduction of basal blood glucose levels in animals by different peptide analogues administered intraperitoneally (i.p.)at a dose of 10 μmol/kg body weight was measured for over 150 min.

[3] = Table 5, compared to insulin alone
[4] = Table 6 (corrected), summary of Table 5

Arg-Gly-Phe-Tyr-NH2 (RGFY-NH2) [Peptide 21]
Activity [1, 3]: inactive
Activity [1, 4]: inactive

Arg-Gly-Ala-Phe-NH2 (RGAF-NH2) [Peptide 14]
Activity [1, 3]: inactive
Activity [1, 4]: inactive

Lys-Gly-Phe-Phe (KGFF-NH2) [Peptide 16]
Activity [1, 3]: inactive
insulin-potentiating activity on in vitro glycogen synthesis (in words) [1]: loss of activity

Ala-Gly-Phe-Phe (AGFF-NH2) [Peptide 12]
Activity [1, 3]: inactive

Arg-Leu-Phe-Phe-NH2 (RLFF-NH2) [Peptide 4]
Activity [1, 4]: active

Leu-Ser-Lys-Leu-Phe-Asu-Asn-Ala (LSKLFDNA-NH2; not fully specified; printed as Leu-Ser-Lys-Leu-Phe-Asu-Asn-Ala) [Peptide 8]
insulin-potentiating effect on decreasing blood glucose in IVITT (in words) (normal male Wistar rats): significant
Reduction in Blood Glucose (normal male Wistar rats; 15 min): 1.08 ± 0.10 mmol/L
Reduction in Blood Glucose (normal male Wistar rats; 30 min): 1.35 ± 0.14 mmol/L
Reduction in Blood Glucose (normal male Wistar rats; 45 min): 1.92 ± 0.17 mmol/L
Reduction in Blood Glucose (normal male Wistar rats; 60 min): 1.78 ± 0.17 mmol/L
insulin-potentiating activity on in vitro glycogen synthesis (in words) [1]: active

Leu-Ser-Gly-Leu-Phe-Asu-Asn-Ala (LSGLFDNA-NH2; not fully specified; printed as Leu-Ser-Gly-Leu-Phe-Asu-Asn-Ala) [Peptide 9]
Reduction in Blood Glucose (normal male Wistar rats; 15 min): 0.87 ± 0.12 mmol/L
Reduction in Blood Glucose (normal male Wistar rats; 30 min): 0.80 ± 0.14 mmol/L
Reduction in Blood Glucose (normal male Wistar rats; 45 min): 0.88 ± 0.15 mmol/L
Reduction in Blood Glucose (normal male Wistar rats; 60 min): 0.74 ± 0.16 mmol/L
Activity [1, 3]: inactive

Arg-Leu-Phe-Asu-Asn-Ala (RLFDNA-NH2) [Peptide 6]
hypoglycaemic effect (reduction of basal blood glucose level) [2]: significant hypoglycaemic effects
hypoglycaemic effect (reduction of basal blood glucose level) ([2]; listed as Asu^11-hGH(8-13) amide): diminished insulin-potentiating effect
insulin-potentiating effect on decreasing blood glucose in IVITT (in words) (normal male Wistar rats): significant
insulin-potentiating effect on decreasing blood glucose in IVITT (in words) (normal male Wistar rats; listed as Asu^11-hGH(8-13)): lower potency
Reduction in Blood Glucose (normal male Wistar rats; 15 min): 0.93 ± 0.17 mmol/L
Reduction in Blood Glucose (normal male Wistar rats; 30 min): 1.58 ± 0.12 mmol/L
Reduction in Blood Glucose (normal male Wistar rats; 45 min): 1.50 ± 0.15 mmol/L
Reduction in Blood Glucose (normal male Wistar rats; 60 min): 1.50 ± 0.19 mmol/L
insulin-potentiating activity on in vitro glycogen synthesis (in words) [1]: diminished insulin-potentiating effect

Arg-Gly-Phe-Ala-NH2 (RGFA-NH2) [Peptide 15]
Activity [1, 3]: inactive
Activity [1, 4]: inactive

[Orn]GFF [Peptide 17]
Activity [1, 3]: inactive
insulin-potentiating activity on in vitro glycogen synthesis (in words) [1]: loss of activity

Arg-β-Ala-Phe-Phe (R[βAla]FF; not fully specified (C-terminus); printed as Arg-β-Ala-Phe-Phe) [Peptide 18]
Activity [1, 4]: active

Leu-Ser-Arg-Leu-Tyr-Asu-Asn-Ala (LSRLYDNA-NH2; not fully specified; printed as Leu-Ser-Arg-Leu-Tyr-Asu-Asn-Ala) [Peptide 10]
insulin-potentiating effect on decreasing blood glucose in IVITT (in words) (normal male Wistar rats): significant
Reduction in Blood Glucose (normal male Wistar rats; 15 min): 1.03 ± 0.10 mmol/L
Reduction in Blood Glucose (normal male Wistar rats; 30 min): 1.52 ± 0.12 mmol/L
Reduction in Blood Glucose (normal male Wistar rats; 45 min): 1.62 ± 0.18 mmol/L
Reduction in Blood Glucose (normal male Wistar rats; 60 min): 1.60 ± 0.34 mmol/L

Arg-Gly-Phe-Phe-NH2 (RGFF-NH2) [Peptide 1]
hypoglycaemic effect (reduction of basal blood glucose level) ([2]; listed as Arg-Gly-Phe-Phe): reduced basal blood glucose levels
hypoglycaemic effect (reduction of basal blood glucose level) ([2]; listed as peptide 1): significant hypoglycaemic effects
Activity [1, 4]: active
insulin-potentiating activity on in vitro glycogen synthesis (in words) [1]: stimulated glycogen synthesis

Arg-D-Ala-Tyr-Phe-NH2 (R[dA]YF-NH2; N-terminus assumed; SMILES C[C@@H](NC(=O)[C@@H](N)CCCNC(=N)N)C(=O)N[C@@H](Cc1ccc(O)cc1)C(=O)N[C@@H](Cc1ccccc1)C(N)=O) [Peptide 24]
Activity [1, 4]: active

RG[Cha]F-NH2 [Peptide 20]
Activity [1, 4]: antagonist

Arg-Gly-Tyr-Phe-NH2 (RGYF-NH2) [Peptide 19]
Activity [1, 4]: active

Arg-D-Ala-Phe-Tyr-me-NH2 (R[dA]FY-NH2; also: 'me' (methyl) after Tyr, site not settled) [Peptide 23]
Activity [1, 4]: active

Arg-Leu-Phe-Asp-Asn-Ala (RLFDNA-NH2) [Peptide 5]
hypoglycaemic effect (reduction of basal blood glucose level) [2]: no hypoglycaemic effect
insulin-potentiating effect on decreasing blood glucose in IVITT (in words) (normal male Wistar rats; listed as Asn^11-hGH(8-13)): no such effect
insulin-potentiating effect on decreasing blood glucose in IVITT (in words) (normal male Wistar rats; listed as linear hGH(8-13)): no activity
Reduction in Blood Glucose (normal male Wistar rats; 15 min): 0.90 ± 0.09 mmol/L
Reduction in Blood Glucose (normal male Wistar rats; 30 min): 1.01 ± 0.11 mmol/L
Reduction in Blood Glucose (normal male Wistar rats; 45 min): 1.07 ± 0.15 mmol/L
Reduction in Blood Glucose (normal male Wistar rats; 60 min): 1.06 ± 0.12 mmol/L
Activity [1, 3]: inactive
insulin-potentiating activity on in vitro glycogen synthesis (in words) [1]: abolished

insulin: exogenous insulin tested alone on hemidiaphragm glycogen synthesis (FIG. 1)
rate of glycogen synthesis ([1]; 0.33 mU/ml insulin alone): 0.52±0.05 μmol/g tissue/hr
rate of glycogen synthesis ([1]; 1 mU/ml insulin alone): 0.60±0.04 μmol/g tissue/hr
rate of glycogen synthesis ([1]; 3.33 mU/ml insulin alone): 1.27±0.06 μmol/g tissue/hr
rate of glycogen synthesis ([1]; 10 mU/ml insulin alone): 1.52±0.07 μmol/g tissue/hr

Arg-D-Ala-Phe-Tyr-NH2 (R[dA]FY-NH2; N-terminus assumed; SMILES C[C@@H](NC(=O)[C@@H](N)CCCNC(=N)N)C(=O)N[C@@H](Cc1ccccc1)C(=O)N[C@@H](Cc1ccc(O)cc1)C(N)=O) [Peptide 22]
Activity [1, 4]: active

Arg-Ala-Phe-Phe-NH2 (RAFF-NH2) [Peptide 13]
Activity [1, 3]: inactive
Activity [1, 4]: inactive

Leu-Ser-Arg-Leu-Gly-Asu-Asn-Ala (LSRLGDNA-NH2; not fully specified; printed as Leu-Ser-Arg-Leu-Gly-Asu-Asn-Ala) [Peptide 11]
Reduction in Blood Glucose (normal male Wistar rats; 15 min): 0.68 ± 0.05 mmol/L
Reduction in Blood Glucose (normal male Wistar rats; 30 min): 0.96 ± 0.06 mmol/L
Reduction in Blood Glucose (normal male Wistar rats; 45 min): 1.08 ± 0.08 mmol/L
Reduction in Blood Glucose (normal male Wistar rats; 60 min): 1.12 ± 0.06 mmol/L
Activity [1, 3]: inactive

Arg-Gly-Phe-Cha-NH2 (RGF[Cha]-NH2; N-terminus assumed; SMILES N=C(N)NCCC[C@H](N)C(=O)NCC(=O)N[C@@H](Cc1ccccc1)C(=O)N[C@@H](CC1CCCCC1)C(N)=O) [Peptide 2]
hypoglycaemic effect (reduction of basal blood glucose level) ([2]; listed as Arg-Gly-Phe-Cha): no hypoglycaemic effect
hypoglycaemic effect (reduction of basal blood glucose level) ([2]; listed as peptide 2): significant hypoglycaemic effects
Activity [1, 4]: antagonist
